Read-outs that look alike come from different tables or passages of the source.
How the values were obtained:
[1] = first-in-human single ascending dose and food-effect study, plasma pharmacokinetics; type: in vivo; conditions: for Vd/F: read-out: Vz/F
From the text: (§1) This was a first-in-human, single center, randomized, double-blind, placebo-controlled, single ascending dose (SAD) study, including a food-effect assessment, in healthy male and female subjects. Up to 44 subjects were included in the study.
(§2) The study consisted of 4 sequential cohorts of 8 subjects each (6 active and 2 placebo), randomly assigned to receive a single oral dose of NRL-1049 or matching-placebo under fasting state on Day 1 (See Table 2). In each cohort, a sentinel group of 2 subjects (1 active and 1 placebo) were dosed at least 24 hours prior to enrolling the remaining subjects of the cohort, contingent on the safety profile observed during sentinel dosing, as defined by medical judgment.
(§3) Subjects were admitted to the clinical research unit (CRU) on Day −1. On Day 1, following an overnight fast, subjects received a single oral dose of their assigned study treatment. Safety, PK, and exploratory biomarker assessments were performed prior to dosing and at assigned time points during study confinement. Subjects were permitted to leave the CRU following the completion of the 48-hour PK postdose sampling and safety assessments. A safety follow-up phone call was performed on Day 8 (±1 day).
(§4) Furthermore, a food-effect assessment was integrated into Cohort 3, in which a single oral 150 mg dose of NRL-1049 or placebo was administered to 12 subjects (10 active and 2 placebo) under fed state in Period 2 (refer to schedule of food-effect Cohort 3 in Table 3). After completion of Period 1 and a washout period of at least 14 days, Cohort 3 subjects repeated the screening procedures to ensure they still met the inclusion and exclusion criteria prior to readmission to the CRU for Period 2. Subjects dosed in Period 1 and who returned for Period 2 (a maximum of 6 active and 2 placebo) were administered the same single oral dose in Period 2 under fed state. In addition, at least 4 new subjects were enrolled in Period 2 only, in order to dose a total of 12 subjects (10 active and 2 placebo), in a 1:1 ratio of male to female. If a subject dosed in Period 1 was unable to return for Period 2, a new subject was enrolled to ensure dosing a total of 12 subjects in Period 2. Newly enrolled subjects only received the study drug in the fed state, and as such were not required to undergo Period 1 activities. There was no sentinel approach in Period 2.
Study drugs (NRL-1049 or placebo) were administered in the morning. The date and time of each dose was recorded. For each subject, all scheduled postdose activities and assessments were performed relative to the time of study drug administration. An oral dose of the assigned formulation was administered to subjects with approximately 240 mL of water at ambient temperature. The capsule(s) were swallowed whole and not chewed or broken. Food and fluid intake other than water were controlled for each confinement period and all subjects. In Cohorts 1, 2, 3 (Period 1), and 4, water was permitted as needed except from 1 hour predose until 1 hour after dosing. In Period 2 of Cohort 3, water was permitted as needed throughout the confinement period. For cohorts under fasting state, subjects were required to fast (abstain from food) for at least 10 hours prior to dosing and for at least 4 hours following dosing. In Period 2 of the food-effect cohort only, following an overnight fast of at least 10 hours, subjects received a standardized high-fat, high-calorie meal 30 minutes prior to study drug administration. An example meal would consist of 2 eggs fried in butter, 2 strips of bacon, 2 slices of toast with butter, 4 ounces of hash brown potatoes, and 8 ounces of whole milk. […] Subjects had to eat the total content of this meal in 30 minutes or less. For all cohorts, a standardized lunch was served at least 4 hours after dosing. A supper, light snack, and other meals were served at appropriate times thereafter, but not until after 9 hours postdose. […]

[2] = first-in-human single ascending dose and food-effect study, safety and tolerability; type: in vivo
From the text: as §1, §2, §3
Each dose cohort was separated by at least 7 days to review safety by the Data Safety Monitoring Board (DSMB) prior to a decision to proceed with the next higher dose cohort or stop the study.
as §4
The safety, PK, and exploratory biomarker assessments were performed prior to dosing and at assigned time points during study confinement. For the food-effect cohort, exploratory biomarker samples were collected in both periods. Subjects were discharged from the CRU following the completion of the 48-hour PK postdose sampling and safety assessments. A safety follow-up phone call was performed on Day 23 (±1 day).

[3] = 150 mg NRL-1049, fed compared to fasting state
[4] = 25 to 250 mg NRL-1049, fasting conditions
[5] = plasma NRL-1049, mean, 25 mg NRL-1049 single oral, fasting, Cohort 1, N = 6
[6] = plasma NRL-1049, mean, 75 mg NRL-1049 single oral, fasting, Cohort 2, N = 6
[7] = plasma NRL-1049, mean, 150 mg NRL-1049 single oral, Fed, Cohort 3, N = 10
[8] = plasma NRL-1049, mean, 250 mg NRL-1049 single oral, fasting, Cohort 4, N = 6

C[C@@H](N)C1CCN(S(=O)(=O)c2cccc3cnccc23)CC1 [NRL-1049]
food effect on mean AUC0-T and AUCinf [1, 3]: greater in the fed state
food effect on mean Cmax [1, 3]: decreased
food effect on mean apparent clearance [1, 3]: greater in the fasting state
food effect on mean apparent volume of distribution [1, 3]: greater in the fed state
food effect on mean elimination half-life [1, 3]: slightly increased
time up to which mean concentrations were quantifiable ([1]; 25-mg dose, fasting state): up to 2 hours
manner of increase of AUC0-T with dose [1, 4]: greater than dose proportional
manner of increase of AUC0-Tmax with dose [1, 4]: dose proportional
manner of increase of AUCinf with dose [1, 4]: greater than dose proportional
manner of increase of Cmax with dose [1, 4]: dose proportional
time up to which mean concentrations were quantifiable ([1]; 75-mg dose, fasting state): ≤ 4 h
time up to which mean concentrations were quantifiable ([1]; 150- and 250-mg doses, fasting state): ≤ 8 h
time up to which mean concentrations were quantifiable ([1]; 150-mg dose, fed state): up to 12 hours
AUC(0-t) ([1]; both sexes, human, plasma, oral, range over dose range 25 to 250 mg NRL-1049, fasting state, read-out: mean AUC0-T): 3.03 to 76.5 ng·h/mL
AUC ([1]; both sexes, human, plasma, oral, range over dose range 25 to 250 mg NRL-1049, fasting state, read-out: mean AUC0-Tmax): 1.26 to 8.73 ng·h/mL
AUC(0-inf) ([1]; both sexes, human, plasma, oral, range over dose range 25 to 250 mg NRL-1049, fasting state, read-out: mean AUCinf): 3.81 to 78.2 ng·h/mL
Cmax ([1]; both sexes, human, plasma, oral, range over dose range 25 to 250 mg NRL-1049, fasting state, read-out: mean Cmax): 3.66 to 58 ng/mL
half-life ([1]; both sexes, human, plasma, oral, range over the dose groups 25 to 250 mg NRL-1049, fasting state, read-out: mean elimination half-life): 31.2 to 75.6 min
AUC(0-t) ([1]; both sexes, human, plasma, po, 25 mg, plasma NRL-1049, mean, 25 mg NRL-1049 single oral, fasting, Cohort 1, N = 6, read-out: AUC0-T): 3.03 ng·h/mL
AUC ([1]; both sexes, human, plasma, po, 25 mg, plasma NRL-1049, mean, 25 mg NRL-1049 single oral, fasting, Cohort 1, N = 6, read-out: AUC0-Tmax): 1.26 ng·h/mL
AUC(0-inf) ([1]; both sexes, human, plasma, po, 25 mg, plasma NRL-1049, mean, 25 mg NRL-1049 single oral, fasting, Cohort 1, N = 6, read-out: AUCinf): 3.81 ng·h/mL
Cmax ([1]; both sexes, human, plasma, po, 25 mg, plasma NRL-1049, mean, 25 mg NRL-1049 single oral, fasting, Cohort 1, N = 6, read-out: Cmax): 3.66 ng/mL
Vd/F ([1]; both sexes, human, plasma, po, 25 mg, plasma NRL-1049, mean, 25 mg NRL-1049 single oral, fasting, Cohort 1, N = 6): 5500 L
Tmax ([1]; both sexes, human, plasma, po, 25 mg, plasma NRL-1049, median, 25 mg NRL-1049 single oral, fasting, Cohort 1, N = 6, read-out: Tmax): 45 min
AUC(0-t) ([1]; both sexes, human, plasma, po, 75 mg, plasma NRL-1049, mean, 75 mg NRL-1049 single oral, fasting, Cohort 2, N = 6, read-out: AUC0-T): 13.8 ng·h/mL
AUC ([1]; both sexes, human, plasma, po, 75 mg, plasma NRL-1049, mean, 75 mg NRL-1049 single oral, fasting, Cohort 2, N = 6, read-out: AUC0-Tmax): 2.88 ng·h/mL
AUC(0-inf) ([1]; both sexes, human, plasma, po, 75 mg, plasma NRL-1049, mean, 75 mg NRL-1049 single oral, fasting, Cohort 2, N = 6, read-out: AUCinf): 15.2 ng·h/mL
Cmax ([1]; both sexes, human, plasma, po, 75 mg, plasma NRL-1049, mean, 75 mg NRL-1049 single oral, fasting, Cohort 2, N = 6, read-out: Cmax): 16.9 ng/mL
Vd/F ([1]; both sexes, human, plasma, po, 75 mg, plasma NRL-1049, mean, 75 mg NRL-1049 single oral, fasting, Cohort 2, N = 6): 6020 L
Tmax ([1]; both sexes, human, plasma, po, 75 mg, plasma NRL-1049, median, 75 mg NRL-1049 single oral, fasting, Cohort 2, N = 6, read-out: Tmax): 30 min
AUC(0-t) ([1]; both sexes, human, plasma, po, 150 mg, plasma NRL-1049, mean, 150 mg NRL-1049 single oral, Fasted, Cohort 3, N = 6, read-out: AUC0-T): 34.8 ng·h/mL
AUC ([1]; both sexes, human, plasma, po, 150 mg, plasma NRL-1049, mean, 150 mg NRL-1049 single oral, Fasted, Cohort 3, N = 6, read-out: AUC0-Tmax): 6.16 ng·h/mL
AUC(0-inf) ([1]; both sexes, human, plasma, po, 150 mg, plasma NRL-1049, mean, 150 mg NRL-1049 single oral, Fasted, Cohort 3, N = 6, read-out: AUCinf): 36.2 ng·h/mL
Cmax ([1]; both sexes, human, plasma, po, 150 mg, plasma NRL-1049, mean, 150 mg NRL-1049 single oral, Fasted, Cohort 3, N = 6, read-out: Cmax): 34.9 ng/mL
Vd/F ([1]; both sexes, human, plasma, po, 150 mg, plasma NRL-1049, mean, 150 mg NRL-1049 single oral, Fasted, Cohort 3, N = 6): 10800 L
AUC(0-t) ([1]; both sexes, human, plasma, po, 150 mg, plasma NRL-1049, mean, 150 mg NRL-1049 single oral, Fed, Cohort 3, N = 10, read-out: AUC0-T): 42 ng·h/mL
AUC ([1]; both sexes, human, plasma, po, 150 mg, plasma NRL-1049, mean, 150 mg NRL-1049 single oral, Fed, Cohort 3, N = 10, read-out: AUC0-Tmax): 6.14 ng·h/mL
AUC(0-inf) ([1]; both sexes, human, plasma, po, 150 mg, plasma NRL-1049, mean, 150 mg NRL-1049 single oral, Fed, Cohort 3, N = 10, read-out: AUCinf): 44.7 ng·h/mL
Cmax ([1]; both sexes, human, plasma, po, 150 mg, plasma NRL-1049, mean, 150 mg NRL-1049 single oral, Fed, Cohort 3, N = 10, read-out: Cmax): 18.5 ng/mL
Vd/F ([1]; both sexes, human, plasma, po, 150 mg, plasma NRL-1049, mean, 150 mg NRL-1049 single oral, Fed, Cohort 3, N = 10): 10800 L
Tmax ([1]; both sexes, human, plasma, po, 150 mg, plasma NRL-1049, median, 150 mg NRL-1049 single oral, Fasted, Cohort 3, N = 6, read-out: Tmax): 30 min
Tmax ([1]; both sexes, human, plasma, po, 150 mg, plasma NRL-1049, median, 150 mg NRL-1049 single oral, Fed, Cohort 3, N = 10, read-out: Tmax): 52.8 min
AUC(0-t) ([1]; both sexes, human, plasma, po, 250 mg, plasma NRL-1049, mean, 250 mg NRL-1049 single oral, fasting, Cohort 4, N = 6, read-out: AUC0-T): 76.5 ng·h/mL
AUC ([1]; both sexes, human, plasma, po, 250 mg, plasma NRL-1049, mean, 250 mg NRL-1049 single oral, fasting, Cohort 4, N = 6, read-out: AUC0-Tmax): 8.73 ng·h/mL
AUC(0-inf) ([1]; both sexes, human, plasma, po, 250 mg, plasma NRL-1049, mean, 250 mg NRL-1049 single oral, fasting, Cohort 4, N = 6, read-out: AUCinf): 78.2 ng·h/mL
Cmax ([1]; both sexes, human, plasma, po, 250 mg, plasma NRL-1049, mean, 250 mg NRL-1049 single oral, fasting, Cohort 4, N = 6, read-out: Cmax): 58 ng/mL
Vd/F ([1]; both sexes, human, plasma, po, 250 mg, plasma NRL-1049, mean, 250 mg NRL-1049 single oral, fasting, Cohort 4, N = 6): 4940 L
Tmax ([1]; both sexes, human, plasma, po, 250 mg, plasma NRL-1049, median, 250 mg NRL-1049 single oral, fasting, Cohort 4, N = 6, read-out: Tmax): 30 min
Tmax ([1]; both sexes, human, plasma, po, range over single oral doses of 25 to 250 mg NRL-1049, fasting state, read-out: median time to maximum observed plasma concentration (Tmax)): 30 to 45 min
CL/F [1, 5]: 7420 L/h
Thalf [1, 5]: 0.52 h
CL/F [1, 6]: 5350 L/h
Thalf [1, 6]: 0.81 h
CL/F ([1]; plasma NRL-1049, mean, 150 mg NRL-1049 single oral, Fasted, Cohort 3, N = 6): 4820 L/h
CL/F [1, 7]: 3700 L/h
Thalf [1, 7]: 2.05 h
CL/F [1, 8]: 3370 L/h
Thalf [1, 8]: 1.03 h
deaths or SAEs ([2]; Part 1 (SAD)): No deaths or SAEs
deaths or SAEs ([2]; Part 2): No deaths or SAEs
TEAEs of Grade 1/mild ([2]; both, human, in vivo): 57.1%
TEAEs of Grade 1 or Grade 2 ([2]; both, human, in vivo): 92.3%
TEAEs of Grade 2/moderate ([2]; both, human, in vivo): 42.9%
TEAEs deemed related to study treatment ([2]; both, human, in vivo, 8 days): 76.9%
TEAEs of Grade 1 ([2]; both, human, in vivo, 8 days): 30.8%
TEAEs of Grade 2 ([2]; both, human, in vivo, 8 days): 61.5%
subjects who experienced TEAEs ([2]; both, human, in vivo, 8 days): 28.1%
CS abnormal findings in laboratory parameters, vital signs, ECGs, physical examination, or cardiac telemetry ([2]; in vivo): No CS abnormal findings
blood pressure ([2]; in vivo): reduction of blood pressure
tolerability ([2]; in vivo, po): generally well tolerated
deaths, SAEs, Grade 4/5 TEAEs ([2]; overall): no deaths, SAEs, or Grade 4/5 TEAEs
MTD ([2]; single oral dose, levels between 150 and 250 mg not explored): 150 mg
